Test results: patent publication US20240024233A1, “Oral Hydrogel Compositions and Uses” (Colgate-Palmolive Company, priority 2020, published 2024)
Converted amounts (≈) assume the structure as drawn.

Experiments:
[1] = system: Actinomyces viscosus (ATCC #43146) and Streptococcus oralis (ATCC #35037); assay: Viability via SIKT with degraded oral gel; format: cell-based; conditions: for percentage of cells that are viable relative to PBS control: n = 6
Text: For viability via SIKT, the same gel degradation procedure as described above is used to treat an overnight culture of Actinomyces viscosus (ATCC #43146) and Streptococcus oralis (ATCC #35037). […] Samples are then processed and the results are presented as a percentage of cells that are viable relative to a control sample treated with PBS alone (negative control).

[2] = in water; cited from earlier work
[3] = Tetrahydrocurcumin solubility (saturation) in hydrogel formulations, UV 280 nm; format: physicochemical; conditions: 4 °C, aqueous with cosolvent or surfactant or cyclodextrin, thermodynamic from solid; tested gels
Protocol: Tetrahydrocurcumin is a highly insoluble drug. It has water solubility of about 6 μg/mL, and this has severely limited attempts to evaluate its in vitro or in vivo potency as a drug because of the difficulty of formulating compositions which can effectively deliver it to body tissues. It is thus a useful reference for compositions intended to deliver low-solubility active agents.
A range of hydrogel formulations are prepared in cold (4° C.) deionized water. Each cold formulation liquid is loaded with tetrahydrocurcumin (0.3 mg/mL of gel) via dispersion with a Speed Mixing apparatus (FlackTek, Inc). Samples are left to interact at 4° C. for 48 hours. Formulations are centrifuged at 10,000 rpm for 60 seconds to separate undissolved active. The saturation of active is determined via UV absorbance at 280 nm.
Tetrahydrocurcumin is found to be soluble in the above tested gels at the following saturation concentrations: […]

## CCO [Ethanol]
[1]; Average of Day 0-28, n = 24
  percentage of cells that are viable relative to PBS control, Average: 16.3%
[1]; Day 0, 30 seconds treatment
  percentage of cells that are viable relative to PBS control: 16.8%
[1]; Day 7, 30 seconds treatment
  percentage of cells that are viable relative to PBS control: 14.5%
[1]; Day 14, 30 seconds treatment
  percentage of cells that are viable relative to PBS control: 14.7%
[1]; Day 28, 30 seconds treatment
  percentage of cells that are viable relative to PBS control: 19.0%

## COc1cc(CCC(=O)CC(=O)CCc2ccc(O)c(OC)c2)ccc1O [Tetrahydrocurcumin]
[2]
  water solubility: about 6 μg/mL
[3]
  solubility at 48 h: 0.085 to 0.236 mg/mL (≈ 228 to 634 µM)
